This note sets out measurements from US20100178317A1, “Lens Care Solutions with Hyaluronic Acid” (priority 2009, published 2010).

A short description of this data set: Precipitate formation of polyquaternium-1 in hyaluronic acid compositions. The format is physicochemical. The conditions noted are these: polyquaternium-1 concentration beyond 3 ppm. The source says: One of the more common quaternary ammonium compounds is α-[4-tris(2-hydroxyethyl)-ammonium chloride-2-butenyl]poly[1-dimethyl ammonium chloride-2-butenyl]-ω-tris(2-hydroxyethyl) ammonium chloride, also referred to in the art as polyquaternium-1. Quaternary ammonium compounds are generally referred to in the art as “polyquatemium” disinfectants, and are identified by a particular number following the designation such as polyquaternium-1, polyquaternium-10 or polyquaternium-42. Polyquaternium-1 is present in the ophthalmic compositions from 0.5 ppm to 3 ppm. […] The precipitate is believed to be the complexation product of hyaluronic acid and polyquaternium-1.

“α-[4-tris(2-hydroxyethyl)-ammonium chloride-2-butenyl]poly[1-dimethyl ammonium chloride-2-butenyl]-ω-tris(2-hydroxyethyl) ammonium chloride [polyquaternium-1]”: the “compatibility with hyaluronic acid in the compositions” value was “formation of a precipitate”.
